From DBAASP come the findings set out here.

Among the test systems are Escherichia coli HB101; Salmonella typhimurium; Bacillus subtilis; Staphylococcus aureus; Pseudomonas aeruginosa; Escherichia coli BW25113.
Holding throughout (test): ≥ marks a high value that may be exact or a test limit, other limits are often not marked, values filed in µg/mL are converted to µM
Assay [1] relates to Staphylococcus aureus ATCC 25923.
In assay [2] the test system is Nocardia asteroides 201118.
Assay [3] deals with Escherichia coli ATCC 25922.
Assay [4] relates to Escherichia coli ATCC 8739.
The subject of assay [5] is Pseudomonas aeruginosa ATCC 47085.
The subject of assay [6] is Acinetobacter baumannii ATCC 19606.
The subject of assay [7] is Staphylococcus aureus ATCC 29213.
Assay [8] relates to Klebsiella pneumoniae ATCC 13883.
For assay [9], the system named is Staphylococcus aureus NCTC 8325.
For assay [10], the system named is Candida albicans ATCC 90028.
The subject of assay [11] is Proteus mirabilis ATCC 25933.
Assay [12] concerns Staphylococcus epidermidis RP62A.
The test system of assay [13] is Enterobacter cloacae HNTCC 53001.
Assay [14] has as its system Pseudomonas aeruginosa ATCC 27853.
Assay [15] deals with Klebsiella pneumoniae KK3 9904.
In assay [16] the test system is Enterococcus faecalis ATCC 29212.
Assay [17] relates to Staphylococcus epidermidis ATCC 35984.
Assay [18] relates to Staphylococcus aureus ATCC 33591.
In assay [19] the test system is Klebsiella pneumoniae ATCC 700603.
For assay [20], the system named is Salmonella enterica subsp. enterica serovar Typhimurium ATCC 14028.
In assay [21] the test system is Escherichia coli BW25113 ΔsbmA.
The subject of assay [22] is Corynebacterium glutamicum ATCC 13032.
Assay [23] concerns Staphylococcus aureus ATCC 9144.

Values after ≈ are worked out from the molar mass of the structure shown.

By MIC is commonly meant the least concentration at which growth counts as inhibited. `CC[C@H](C)[C@H](NC(=O)[C@H](C)NC(=O)CNC(=O)[C@@H](NC(=O)[C@H](CC(C)C)NC(=O)[C@H](CC(C)C)NC(=O)[C@@H]1CCCN1C(=O)[C@H](CC(C)C)NC(=O)[C@@H](N)Cc1ccccc1)C(C)C)C(=O)N[C@@H](CO)C(=O)N[C@@H](CO)C(=O)N[C@H](C(=O)N[C@@H](CC(C)C)C(=O)N1CCC[C@H]1C(=O)N[C@@H](CCCCN)C(=O)N[C@H](C(=O)N[C@@H](Cc1ccccc1)C(N)=O)[C@@H](C)CC)[C@@H](C)CC` [FLPLLVGAISSILPKIF]: the minimum inhibitory concentration (MIC) in assay [1] is 12.5 µM (≈ 22.8 µg/mL); in assay [2], 6.3 µM (≈ 11.5 µg/mL).
`CC[C@H](C)[C@H](NC(=O)CN)C(=O)NCC(=O)N[C@@H](C)C(=O)N[C@H](C(=O)N[C@@H](CC(C)C)C(=O)N[C@@H](CCCCN)C(=O)N[C@H](C(=O)N[C@@H](CC(C)C)C(=O)N[C@H](C(=O)N[C@H](C(=O)NCC(=O)N[C@@H](CC(C)C)C(=O)N1CCC[C@H]1C(=O)N[C@@H](C)C(=O)N[C@@H](CC(C)C)C(=O)N[C@H](C(=O)N[C@@H](CO)C(=O)N[C@@H](Cc1c[nH]c2ccccc12)C(=O)N[C@H](C(=O)N[C@@H](CCCCN)C(=O)N[C@@H](CCCN=C(N)N)C(=O)N[C@@H](CCCCN)C(=O)N[C@@H](CCCN=C(N)N)C(=O)N[C@@H](CCC(N)=O)C(=O)N[C@@H](CCC(N)=O)C(=O)O)[C@@H](C)CC)[C@@H](C)CC)[C@@H](C)O)[C@@H](C)O)C(C)C)C(C)C` [GIGAVLKVLTTGLPALISWIKRKRQQ]: the minimum inhibitory concentration (MIC) was 6.3 µM (≈ 17.9 µg/mL) in [3]; 4.52 µM (≈ 12.9 µg/mL) in assay [4]; 4.9 µM (≈ 14 µg/mL) in assay [5]; 4.1 µM (≈ 11.7 µg/mL) in [6]; 3.83 µM (≈ 10.9 µg/mL) in assay [7]; 3.5 µM (≈ 9.97 µg/mL) in assay [8].
For `CC[C@H](C)[C@H](NC(=O)CNC(=O)[C@H](CCCCN)NC(=O)[C@H](Cc1ccccc1)NC(=O)[C@@H](NC(=O)[C@H](CCCCN)NC(=O)[C@H](CCCCN)NC(=O)[C@H](CC(C)C)NC(=O)[C@H](C)NC(=O)[C@H](CCCCN)NC(=O)[C@H](CC(C)C)NC(=O)CN)C(C)C)C(=O)N[C@@H](Cc1cnc[nH]1)C(=O)N[C@@H](CCCCN)C(=O)N[C@@H](C)C(=O)N[C@H](C(=O)N[C@@H](CCCCN)C(=O)N[C@@H](CC(C)C)C(=O)N[C@H](C(=O)N[C@@H](CC(N)=O)C(=O)N[C@@H](CC(N)=O)C(=O)N[C@@H](Cc1cnc[nH]1)C(=O)N[C@H](C(=O)N[C@@H](CCC(N)=O)C(=O)O)C(C)C)[C@@H](C)CC)[C@@H](C)CC` [GLKALKKVFKGIHKAIKLINNHVQ], the minimal inhibitory concentration (MIC) in assay [3] was 5 µM (≈ 13.5 µg/mL); in [9], 20 µM (≈ 54 µg/mL); in assay [10], at least 80 µM; in assay [11], at least 80 µM; in assay [12] it was 10 µM (≈ 27 µg/mL); in assay [13], 5 µM (≈ 13.5 µg/mL). Besides, the minimal inhibitory concentration (MIC) is 5 µM (≈ 13.5 µg/mL) in assay [14], 5 µM (≈ 13.5 µg/mL) in [15] and above 80 µM in assay [16].
Turning to `CC[C@H](C)[C@H](NC(=O)[C@@H](NC(=O)[C@@H]1CCCN1C(=O)[C@@H](NC(=O)[C@@H]1CCCN1C(=O)[C@H](CCCCN)NC(=O)[C@H](CCCCN)NC(=O)[C@H](CO)NC(=O)CN)C(C)C)[C@@H](C)CC)C(=O)N[C@@H](Cc1ccc(O)cc1)C(=O)N[C@H]1CSSC[C@@H](C(=O)N[C@@H](CCC(N)=O)C(=O)N[C@@H](CCCN=C(N)N)C(=O)N[C@@H](CCSC)C(=O)O)NC(=O)[C@H](CCCCN)NC(=O)[C@H]([C@@H](C)O)NC(=O)[C@H](CCCN=C(N)N)NC(=O)[C@H](CCCN=C(N)N)NC(=O)[C@H](CC(N)=O)NC1=O` [GSKKPVPIIYCNRRTKCQRM], the minimum inhibitory concentration (MIC) is 2.6 µM (≈ 6.18 µg/mL) against Escherichia coli HB101; 1.3 µM (≈ 3.09 µg/mL) with Salmonella typhimurium; 5.2 µM (≈ 12.4 µg/mL) with Bacillus subtilis; 20.8 µM (≈ 49.4 µg/mL) against Staphylococcus aureus; 5.2 µM (≈ 12.4 µg/mL) with Pseudomonas aeruginosa.
For the molecule `CC(C)[C@H](NC(=O)[C@H](Cc1ccccc1)NC(=O)[C@H](C)NC(=O)[C@H](CCCCN)NC(=O)CNC(=O)[C@H](Cc1ccccc1)NC(=O)[C@H](CCCCN)NC(=O)[C@H](CCCCN)NC(=O)[C@H](C)NC(=O)[C@H](CCCCN)NC(=O)[C@@H](N)CCCCN)C(=O)N[C@@H](CCCCN)C(N)=O` [KKAKKFGKAFVK], the minimum inhibitory concentration (MIC) in assay [17] is at least 371 µM; in assay [1] it was above 371 µM; in [14], above 371 µM; in [18], at least 371 µM.
On to `CC[C@H](C)[C@H](NC(=O)[C@@H]1CCCN1C(=O)[C@@H]1CCCN1C(=O)[C@H](CCCN=C(N)N)NC(=O)[C@H](Cc1ccccc1)NC(=O)[C@@H](N)CCCN=C(N)N)C(=O)N[C@@H](CCCN=C(N)N)C(=O)N[C@@H](CCCN=C(N)N)C(=O)N1CCC[C@H]1C(=O)N1CCC[C@H]1C(=O)N[C@H](C(=O)N[C@@H](CCCN=C(N)N)C(=O)N1CCC[C@H]1C(=O)N1CCC[C@H]1C(=O)N[C@@H](Cc1ccccc1)C(=O)N[C@@H](Cc1ccc(O)cc1)C(=O)N1CCC[C@H]1C(=O)N1CCC[C@H]1C(=O)N[C@@H](Cc1ccccc1)C(=O)N[C@@H](CCCN=C(N)N)C(=O)N1CCC[C@H]1C(=O)O)[C@@H](C)CC` [RFRPPIRRPPIRPPFYPPFRP], for which the MIC in [3] was 4 µM (≈ 10.6 µg/mL); in assay [1], above 64 µM; in [6], 16 µM (≈ 42.6 µg/mL); in the assay with Escherichia coli BW25113, 2 µM (≈ 5.32 µg/mL); in assay [14], above 64 µM; in assay [19] it was 32 µM (≈ 85.1 µg/mL). The minimum inhibitory concentration (MIC) in assay [20] is 8 µM (≈ 21.3 µg/mL); in assay [21] it was 16 µM (≈ 42.6 µg/mL).
With `CC[C@H](C)[C@H](NC(=O)[C@@H]1CCCN1C(=O)[C@H](CCCCN)NC(=O)[C@@H]1CCCN1C(=O)[C@H](CCCN=C(N)N)NC(=O)CNC(=O)[C@@H]1CCCN1C(=O)[C@H](Cc1ccccc1)NC(=O)[C@@H]1CCCN1C(=O)[C@H](CCCN=C(N)N)NC(=O)[C@@H]1CCCN1C(=O)[C@H](CCCN=C(N)N)NC(=O)CNC(=O)[C@@H]1CCCN1C(=O)[C@H](CO)NC(=O)[C@@H]1CCCN1C(=O)[C@H](Cc1c[nH]c2ccccc12)NC(=O)[C@H](CCCN=C(N)N)NC(=O)[C@@H](N)CO)C(=O)N[C@@H](Cc1ccccc1)C(=O)N[C@@H](CCCN=C(N)N)C(=O)N1CCC[C@H]1C(=O)N[C@@H](CCCN=C(N)N)C(=O)O` [SRWPSPGRPRPFPGRPKPIFRPR], the minimal inhibitory concentration (MIC) is 6.3 µM (≈ 17.3 µg/mL) in assay [3]; 3.1 µM (≈ 8.5 µg/mL) in the assay on Escherichia coli HB101; 0.8 µM (≈ 2.19 µg/mL) in assay [22]; 12.5 µM (≈ 34.3 µg/mL) in assay [14]; at least 100 µM in assay [23].
